Columns and labels:
collagen α1(I) gene = test: Ang II rat model: in situ hybridization of heart tissue with rat collagen α1(I) probe; format: in vivo; details: rats given both Halofuginone and Ang II vs Ang II alone
Protocol: (§1) The experimental method was as follows. Male Sprague-Dawley rats were divided into four groups. Two groups were chronically infused with Ang II at the rate of 0.150 ng/min by implanted mini-pump. This dosage regimen will induce severe cardiac fibrosis. The other two groups of rats, control rats, were injected with saline. One group of Ang II-treated rats and one control group were daily injected intraperitoneally with 16 micrograms of Halofuginone. At the end of the experimental period, the rats were sacrificed and the heart was removed and weighed. Heart samples were then hybridized with a probe for rat collagen α1(I) expression, or with a probe for TGF β1 expression. For hybridization with one of the genetic probes, the sections were deparafinized in xylene, rehydrated through a graded series of ethanol solutions, rinsed in distilled water for 5 minutes and then incubated in 2×SSC at 70° C. for 30 minutes. The sections were then rinsed in distilled water and treated with pronase, 0.125 mg/ml in 50 mM Tris-HCl, 5 mM EDTA, pH 7.5, for 10 minutes. After digestion, the slides were rinsed with distilled water, post-fixed in 10% formalin in PBS and blocked in 0.2% glycine. After blocking, the slides were rinsed in distilled water, rapidly dehydrated through graded ethanol solutions and air-dried for several hours. […]

β3 integrin chain = test: RT-PCR for β3 integrin chain in MDA 435 breast carcinoma cells; format: cell-based, human; details: MDA 435 cells, 24 h, 200 ng/ml
Protocol: (§2) Therefore, the effect of Halofuginone was investigated on the expression of αv, β3 and β5 integrin subunits in the highly aggressive MDA 435 human breast carcinoma cell line. Cells were cultured in the absence (FIG. 4, lanes A & B) or presence of increasing concentrations (10-400 ng/ml) of Halofuginone for 24 h (lane C: 400 ng/ml), 48 h (lanes D-G: 10, 50, 200, and 400 ng/ml, respectively) or 72 h (FIG. 4, lane H: 400 ng/ml). Total RNA was extracted, subjected to 1.1% formaldehyde-agarose gel electrophoresis, transferred to a nylon membrane and hybridized with ^32P-labeled PCR probe corresponding to αv. […] This effect was […] at higher concentrations (200-400 ng/ml) of Halofuginone (FIG. 4, lanes F-H). Next, RT-PCR was used to analyze the effect of Halofuginone on expression of the β3 and β5 integrin chains by the MDA 435 breast carcinoma cells. […] In contrast, there was no effect on expression of the β5 mRNA. As the αvβ3 integrin complex plays an important role in tumor angiogenesis, the anti-angiogenic effect of Halofuginone may be mediated in part by its inhibition of the β3 gene expression.

collagen α1(I) mRNA = test: Collagen α1(I) mRNA level in primary human fibroblasts; format: cell-based; details: tested at the level of RNA
Protocol: The same protocol was used as previously. Primary human fibroblasts were treated for 1 hr with 10^−8 M Halofuginone. […] Arrays include 265 genes known to be involved in various types of cell interactions.

[1] = test system: collagen type I gene expression; test: Northern blot for collagen type I gene expression in human skin fibroblasts; format: cell-based; details: primary culture
Protocol: (§3) Next, human skin fibroblasts were taken from a subject and were maintained in primary culture. Control cells were treated with vehicle while Halofuginone-treated cells were treated with Halofuginone as previously described. The cells were then harvested and subjected to RNA extraction and Northern blot analysis for collagen type I gene expression and for cKrox gene expression.

NF-κB transcription = NF-κB transcription assay (MDS Panlabs); format: cell-based
Protocol: (§4) The ability of Halofuginone to inhibit various biochemical processes according to a set of assays for determining the percent inhibition of specific binding or activity of particular cellular proteins is described in greater detail in Table 1 below. The assays were performed by MDS Panlabs Inc. (Bothell, […]., USA). These assays included: the inhibition of release of the cytokines IL-1β and TNF-α; and the inhibition of the transcription of NF-κB.

[2] = test system: cell invasion through matrigel ECM; test: Boyden chamber invasion assay; format: cell-based; details: data not shown
Text: Such inhibition supports the inclusion of type IV collagenase inhibition as part of the extracellular matrix economy mechanism, in which Halofuginone inhibits undesirable pathological processes such as tumor growth, progression and metastasis, as described previously.

TGF β = test: Ang II rat model: in situ hybridization of heart tissue with TGF-β1 probe; format: in vivo; details: rats given Ang II plus Halofuginone vs Ang II
Protocol: as §1

cKrox gene expression = test: Northern blot for cKrox gene expression in human skin fibroblasts; format: cell-based; details: primary culture
Protocol: as §3

cytokine TNF-α release = test: Cytokine TNF-α release assay (MDS Panlabs); format: cell-based
Protocol: as §4

cytokine IL-1β release = test: Cytokine IL-1β release assay (MDS Panlabs); format: cell-based
Protocol: as §4

[3] = test system: Ang II-induced cardiac fibrosis; test: Ang II-induced cardiac fibrosis in rats: histology and collagen volume quantitation (Sirius red); format: in vivo, rat
Protocol: The experimental method was as follows. Male Sprague-Dawley rats were divided into four groups. Two groups were chronically infused with Ang II at the rate of 0.150 ng/min by implanted mini-pump. This dosage regimen will induce severe cardiac fibrosis. The other two groups of rats, control rats, were injected with saline. One group of Ang II-treated rats and one control group were daily injected intraperitoneally with 16 micrograms of Halofuginone. At the end of the experimental period, the rats were sacrificed and the heart was removed and weighed. Heart samples were taken for histological examination. Briefly, the tissue samples were collected into phosphate-buffered saline (PBS) and fixed overnight in 4% paraformaldehyde in PBS at 4° C. Serial 5 μm sections were prepared after the samples had been dehydrated in graded ethanol solutions, cleared in chloroform and embedded in Paraplast. Differential staining of collagenous and non-collagenous proteins was performed with 0.1% Sirius red and 0.1% fast green as a counter-stain in picric acid. This procedure stains collagen red [Gascon-Barre, M., et al., J. Histochem. Cytochem., 37:377-381, 1989]. […] Indeed, the ventricular collagen volume fraction (CVF) was increased by threefold (p<0.05) in rats treated with Ang II, compared to rats treated with either Halofuginone alone or Halofuginone plus Ang II. In addition, the ventricular CVF for control rats was identical to that for rats treated with Halofuginone alone.

β5 integrin chain = test: RT-PCR for β5 integrin chain in MDA 435 breast carcinoma cells; format: cell-based, human; details: MDA 435 cells, 24 h, 10-400 ng/ml
Protocol: as §2

[4] = test system: collagen type I gene expression; test: Northern blot for collagen type I gene expression in myometrial and leiomyosarcoma cells; format: cell-based, human; details: increasing concentrations, about 48 hours
Protocol: Myometrial and leiomyosarcoma cells were taken from the same patient and were plated into 10 cm plates in DMEM supplemented with 10% FCS. When the cells reached 80% confluence, the medium was replaced by serum free DMEM plus 0.1% BSA for 48 hours, washed and exposed to increasing concentrations of Halofuginone in the same medium for about 48 hours at about 37° C. The cells were then harvested and subjected to RNA extraction and Northern blot analysis for collagen type I gene expression.

αv integrin subunit = test: Northern blot for integrin αv mRNA in MDA 435 breast carcinoma cells; format: cell-based, human; details: MDA 435 cells
Protocol: as §2

H19 gene = test: Northern blot for H19 gene expression in bladder carcinoma cell lines; format: cell-based, human; details: 130 ng/ml
Protocol: RT112 and 5376 human bladder carcinoma cell lines were cultured in the absence and presence of Halofuginone (130 ng/ml, added 24 h or 72 h after seeding), and the expression of the H19 gene was evaluated by Northern blot analysis ([…]. et al., Arterioscler. Thromb. Vasc. Biol., Vol. 17, p. 194-202, 1997). […] Such inhibition also supports the inclusion of the inhibition of H19 gene expression as part of the extracellular matrix economy mechanism, as described previously.

[5] = test system: MMP2 (72 kDa type IV collagenase); test: Gelatin zymography of type IV collagenase activity in T50 bladder carcinoma cell cultures; format: cell-based
Protocol: Sub-confluent cell cultures were incubated for 6-24 h in serum-free DMEM. The collagenolytic activity was determined on a gelatin impregnated (1 mg/ml. Difco, Detroit, Mich.) SDS-PAGE 8% gel. Briefly, culture media samples were separated on the substrate impregnated gels under non reducing conditions, followed by 30 min incubation in 2.5% Triton X-100 (BDH, England). The gels were then incubated for 16 h at 37° C. in 50 mM Tris, 0.2 M NaCl, 5 mM CaCl2, 0.02% Brij 35 (weight/volume) at pH 7.5. At the end of incubation period, the gels were stained with 0.5% Coomassie G250 (Bio-Rad Richmond Calif.) in methanol/acetic acid/H2O (30:10:60). The intensity of the various bands was determined on a computerized densitometer (Molecular Dynamics type 300A).

O=C(CC1NCCC[C@H]1O)Cn1cnc2cc(Br)c(Cl)cc2c1=O (stereo partly drawn) [Halofuginone]
expression of collagen α1(I) gene in rat heart (collagen α1(I) gene): marked reduction
β3 mRNA expression (β3 integrin chain): almost complete inhibition
collagen α1(I) mRNA (collagen α1(I) mRNA): reduced
collagen type I gene expression [1]: inhibiting collagen type I gene expression
IC50 (NF-κB transcription): 25 nM
cell invasion through matrigel ECM [2]: inhibit cell invasion
Ang II-induced increase in expression of mRNA for TGF β in rat heart (TGF β): not affected
cKrox gene expression (cKrox gene expression): promoted cKrox gene expression
IC50 (cytokine TNF-α release): 6.8 nM
IC50 (cytokine IL-1β release): 31.7 nM
Ang II-induced morphological changes in rat heart (histology) ([3]; Ang II-infused rats, 16 micrograms daily intraperitoneally): substantially inhibited
ventricular CVF ([3]; Halofuginone alone, without Ang II, two week period): did not alter
ventricular collagen volume (CVF) ([3]; rats given both Ang II and Halofuginone vs Ang II alone, 16 micrograms daily i.p.): markedly reduced
β5 mRNA expression (β5 integrin chain): no effect
collagen type I gene expression (products at 5.4 and 4.8 kb) [4]: inhibited collagen type I gene expression
αv mRNA expression (up regulation effect) (αv integrin subunit; 200-400 ng/ml): minimal
αv mRNA expression (αv integrin subunit; 48 h, 10 and 50 ng/ml): up regulation
expression of the H19 gene (H19 gene; 5376 bladder carcinoma cell line): substantial reduction
expression of the H19 gene (H19 gene; RT112 bladder carcinoma cell line): substantial reduction
inhibition of the activity of MMP2 (72 kDa type IV collagenase) ([5]; 25 ng/ml): profound inhibition
inhibition of the activity of MMP2 (72 kDa type IV collagenase) ([5]; 100 ng/ml): almost complete inhibition
